# Measurements published in PubChem BioAssay (NCI).
#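 Cultured in 96-well plates, cells were exposed to test compound for 48 hours across five concentrations. TGI: concentration producing complete growth inhibition.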
# Tests used:
# Test in all cases: growth of human tumour cells (NCI), 48 h
# 786-0 renal = system: 786-0 renal
# A498 renal = system: A498 renal
# A549 NSCLC = system: A549 NSCLC
# ACHN renal = system: ACHN renal
# BT-549 breast = system: BT-549 breast
# CAKI-1 renal = system: CAKI-1 renal
# CCRF-CEM leukemia = system: CCRF-CEM leukemia
# COLO 205 colon = system: COLO 205 colon
# DU-145 prostate = system: DU-145 prostate
# EKVX NSCLC = system: EKVX NSCLC
# HCC-2998 colon = system: HCC-2998 colon
# HCT-116 colon = system: HCT-116 colon
# HCT-15 colon = system: HCT-15 colon
# HL-60(TB) leukemia = system: HL-60(TB) leukemia
# HOP-62 NSCLC = system: HOP-62 NSCLC
# HOP-92 NSCLC = system: HOP-92 NSCLC
# HS 578T breast = system: HS 578T breast
# HT29 colon = system: HT29 colon
# IGROV1 ovarian = system: IGROV1 ovarian
# K-562 leukemia = system: K-562 leukemia
# KM12 colon = system: KM12 colon
# LOX IMVI melanoma = system: LOX IMVI melanoma
# M14 melanoma = system: M14 melanoma
# MALME-3M melanoma = system: MALME-3M melanoma
# MCF7 breast = system: MCF7 breast
# MDA-MB-231 breast = system: MDA-MB-231 breast
# MDA-MB-435 = system: MDA-MB-435
# MDA-N = system: MDA-N
# MOLT-4 leukemia = system: MOLT-4 leukemia
# NCI-H226 lung = system: NCI-H226 lung
# NCI-H23 lung = system: NCI-H23 lung
# NCI-H460 lung = system: NCI-H460 lung
# NCI-H522 lung = system: NCI-H522 lung
# NCI/ADR-RES ovarian = system: NCI/ADR-RES ovarian
# OVCAR-3 ovarian = system: OVCAR-3 ovarian
# OVCAR-4 ovarian = system: OVCAR-4 ovarian
# OVCAR-5 ovarian = system: OVCAR-5 ovarian
# OVCAR-8 ovarian = system: OVCAR-8 ovarian
# PC-3 prostate = system: PC-3 prostate
# RPMI-8226 leukemia = system: RPMI-8226 leukemia
# RXF 393 renal = system: RXF 393 renal
# SF-268 CNS = system: SF-268 CNS
# SF-295 CNS = system: SF-295 CNS
# SF-539 CNS = system: SF-539 CNS
# SK-MEL-2 melanoma = system: SK-MEL-2 melanoma
# SK-MEL-28 melanoma = system: SK-MEL-28 melanoma
# SK-MEL-5 melanoma = system: SK-MEL-5 melanoma
# SK-OV-3 ovarian = system: SK-OV-3 ovarian
# SN12C renal = system: SN12C renal
# SNB-19 CNS = system: SNB-19 CNS
# SNB-75 CNS = system: SNB-75 CNS
# SR leukemia = system: SR leukemia
# SW-620 colon = system: SW-620 colon
# T-47D breast = system: T-47D breast
# TK-10 renal = system: TK-10 renal
# U251 CNS = system: U251 CNS
# UACC-257 melanoma = system: UACC-257 melanoma
# UACC-62 melanoma = system: UACC-62 melanoma
# UO-31 renal = system: UO-31 renal
# DLD-1 colon = system: DLD-1 colon
# DMS 114 small cell lung = system: DMS 114 small cell lung
# KM20L2 colon = system: KM20L2 colon
# LXFL 529 NSCLC = system: LXFL 529 NSCLC
# M19-MEL melanoma = system: M19-MEL melanoma
compound,measurement,setting,value
CCOC(=O)C(NC(=O)c1cccc(Cl)c1)(N1CCN(c2cc3c(cc2F)c(=O)c(C(=O)O)cn3CC)CC1)C(F)(F)F (configuration not stated),TGI,786-0 renal,30.9 µM
same,TGI,A498 renal,51 µM
same,TGI,A549 NSCLC,64.2 µM
same,TGI,ACHN renal,32.9 µM
same,TGI,BT-549 breast,43.7 µM
same,TGI,CAKI-1 renal,60.9 µM
same,TGI,CCRF-CEM leukemia,10.7 µM
same,TGI,COLO 205 colon,32 µM
same,TGI,DU-145 prostate,88.3 µM
same,TGI,EKVX NSCLC,68.3 µM
same,TGI,HCC-2998 colon,27.5 µM
same,TGI,HCT-116 colon,27.6 µM
same,TGI,HCT-15 colon,38.2 µM
same,TGI,HL-60(TB) leukemia,20.1 µM
same,TGI,HOP-62 NSCLC,36.6 µM
same,TGI,HOP-92 NSCLC,33.4 µM
same,TGI,HS 578T breast,44.8 µM
same,TGI,HT29 colon,42.5 µM
same,TGI,IGROV1 ovarian,47.6 µM
same,TGI,K-562 leukemia,52 µM
same,TGI,KM12 colon,25.2 µM
same,TGI,LOX IMVI melanoma,48.7 µM
same,TGI,M14 melanoma,31.9 µM
same,TGI,MALME-3M melanoma,32.4 µM
same,TGI,MCF7 breast,37.2 µM
same,TGI,MDA-MB-231 breast,36.3 µM
same,TGI,MDA-MB-435,28 µM
same,TGI,MDA-N,28.2 µM
same,TGI,MOLT-4 leukemia,19.3 µM
same,TGI,NCI-H226 lung,40.1 µM
same,TGI,NCI-H23 lung,42 µM
same,TGI,NCI-H460 lung,81.2 µM
same,TGI,NCI-H522 lung,16.4 µM
same,TGI,NCI/ADR-RES ovarian,> 100 µM
same,TGI,OVCAR-3 ovarian,38.2 µM
same,TGI,OVCAR-4 ovarian,53 µM
same,TGI,OVCAR-5 ovarian,33 µM
same,TGI,OVCAR-8 ovarian,46.7 µM
same,TGI,PC-3 prostate,35.1 µM
same,TGI,RPMI-8226 leukemia,62.8 µM
same,TGI,RXF 393 renal,39.4 µM
same,TGI,SF-268 CNS,35.3 µM
same,TGI,SF-295 CNS,40 µM
same,TGI,SF-539 CNS,30.2 µM
same,TGI,SK-MEL-2 melanoma,31.1 µM
same,TGI,SK-MEL-28 melanoma,33.9 µM
same,TGI,SK-MEL-5 melanoma,27.2 µM
same,TGI,SK-OV-3 ovarian,64.2 µM
same,TGI,SN12C renal,70.9 µM
same,TGI,SNB-19 CNS,> 100 µM
same,TGI,SNB-75 CNS,61.2 µM
same,TGI,SR leukemia,52.2 µM
same,TGI,SW-620 colon,29.4 µM
same,TGI,T-47D breast,51.4 µM
same,TGI,TK-10 renal,56.6 µM
same,TGI,U251 CNS,20.9 µM
same,TGI,UACC-257 melanoma,54.9 µM
same,TGI,UACC-62 melanoma,32.4 µM
same,TGI,UO-31 renal,46.6 µM
CCOC(=O)C1C(=O)C(=O)N2CCc3c([nH]c4ccccc34)C12 (configuration not stated),TGI,786-0 renal,> 100 µM
same,TGI,A498 renal,> 100 µM
same,TGI,A549 NSCLC,> 100 µM
same,TGI,CAKI-1 renal,> 100 µM
same,TGI,CCRF-CEM leukemia,> 100 µM
same,TGI,COLO 205 colon,> 100 µM
same,TGI,DLD-1 colon,> 100 µM
same,TGI,DMS 114 small cell lung,> 100 µM
same,TGI,EKVX NSCLC,> 100 µM
same,TGI,HCC-2998 colon,> 100 µM
same,TGI,HCT-116 colon,> 100 µM
same,TGI,HCT-15 colon,> 100 µM
same,TGI,HL-60(TB) leukemia,> 100 µM
same,TGI,HOP-62 NSCLC,> 100 µM
same,TGI,HOP-92 NSCLC,> 100 µM
same,TGI,HT29 colon,> 100 µM
same,TGI,IGROV1 ovarian,> 100 µM
same,TGI,K-562 leukemia,> 100 µM
same,TGI,KM12 colon,> 100 µM
same,TGI,KM20L2 colon,> 100 µM
same,TGI,LXFL 529 NSCLC,> 100 µM
same,TGI,M14 melanoma,> 100 µM
same,TGI,M19-MEL melanoma,> 100 µM
same,TGI,MALME-3M melanoma,> 100 µM
same,TGI,MOLT-4 leukemia,> 100 µM
same,TGI,NCI-H23 lung,> 100 µM
same,TGI,NCI-H522 lung,> 100 µM
same,TGI,OVCAR-3 ovarian,> 100 µM
same,TGI,OVCAR-4 ovarian,> 100 µM
same,TGI,OVCAR-5 ovarian,> 100 µM
same,TGI,OVCAR-8 ovarian,> 100 µM
same,TGI,RPMI-8226 leukemia,> 100 µM
same,TGI,RXF 393 renal,> 100 µM
same,TGI,SF-268 CNS,> 100 µM
same,TGI,SF-295 CNS,> 100 µM
same,TGI,SF-539 CNS,> 100 µM
same,TGI,SK-MEL-2 melanoma,> 100 µM
same,TGI,SK-MEL-28 melanoma,> 100 µM
same,TGI,SK-MEL-5 melanoma,> 100 µM
same,TGI,SK-OV-3 ovarian,> 100 µM
same,TGI,SN12C renal,> 100 µM
same,TGI,SNB-19 CNS,> 100 µM
same,TGI,SR leukemia,> 100 µM
same,TGI,SW-620 colon,> 100 µM
same,TGI,TK-10 renal,> 100 µM
same,TGI,U251 CNS,> 100 µM
same,TGI,UACC-62 melanoma,> 100 µM
same,TGI,UO-31 renal,> 100 µM
